Measurements taken from US20170058319A1, “NANOSENSOR FOR ASSESSING THROMBIN INHIBITORS” (VIRGINIA COMMONWEALTH UNIVERSITY, priority 2014, published 2017).
Entries after “also recorded” stand apart in the source; their conditions may differ. One block for each compound: values may come before it.

Experiments:
PF-4 heparin complex = biological target: T1, PF-4 heparin complex (Homo sapiens, UniProt P02776); conditions: in vivo; cited from earlier work
T1 sequence (P02776 32-101): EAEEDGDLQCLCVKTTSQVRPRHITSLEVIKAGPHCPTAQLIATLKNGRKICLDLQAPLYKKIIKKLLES

[1] = Protocol: Stability of Au-TH nanoparticles was studied at RT and at −80° C. The NPs were kept in dark at RT for six hours and at −80° C. for 1 month. Absorbance spectra were measured every hour.
[2] = Catalytic activity of surface bound thrombin, Michaelis Menten kinetics; assay type: biochemical; conditions: PBS pH 7.4, 37° C., Spectrozyme TH 0.7-750 μM
Protocol: Michaelis Menten kinetics were utilized to test the catalytic activity of the surface bound thrombin on the AuNP-TH using a microplate chromogenic substrate hydrolysis assay. Briefly, 165 μL aliquots of PBS buffer pH 7.4 were placed in a 96-well microplate, to which either 5 μL of thrombin at a concentration of 0.04 mg/ml (1 μM) or 5 μL of AuNP-TH was added. The solution was incubated for 5 minutes at 37° C., followed by addition of 30 μL of serial dilutions of Spectrozyme TH substrate such that the final concentrations ranged from 0.7-750 μM. The velocity of substrate hydrolysis was measured by monitoring the slope of the increase in absorbance at 405 nm. A plot of velocity of substrate hydrolysis (v) vs substrate concentration ([S]) (FIG. 5) was fit to the Michaelis Menten equation below to yield the Michaelis Menten constant (KM) and maximum velocity of the reaction (VMAX), which are a direct measure of the catalytic efficiency of the enzyme.

AT levels = conditions: in vivo; cited from earlier work
[3] = cited from earlier work
[4] = biological target: T2, NSET pair (Au-TH-NS and HirP) (Bos taurus, UniProt P00735); experiment: Probing antithrombin levels in plasma with NSET pair; assay type: binding, bovine; conditions: 600 μM BSA, 5-20 μL
T2 construct: An aliquot of bovine α-thrombin (200 μg) from a stock solution; purchased Haematologic Technologies, Vermont, USA BCT-1020
Protocol: A 96-well plate was used for this experiment. The baseline fluorescence of the NSET pair (Au-TH-NS (6 nM, 50 μL) and HirP (50 μL, 30 nM) in 50 μL of 20 mM Tris-HCl buffer, pH 7.4, containing 100 mM NaCl, 2.5 mM CaCl2 and 0.1% PEG8000) was measured by recording the fluorescence emission at 525 nm (λex=488 nm). The NSET pair was then incubated with different volumes of plasma (5 μL, 10 μL, 15 μL and 20 μL). To assess specificity of AT reaction, the NSET pair was also incubated with 600 μM BSA (5 μL, […], 15 μL and 20 μL). The fluorescence intensity was recorded within 1-3 min after incubation began (FIG. 6).

[5] = biological target: T3, surface bound thrombin on the AuNP (Bos taurus, UniProt P00735); experiment: Reactivity of surface bound thrombin to antithrombin, chromogenic substrate hydrolysis assay; assay type: biochemical, bovine; conditions: AT alone
T3 construct: An aliquot of bovine α-thrombin (200 μg) from a stock solution; purchased Haematologic Technologies, Vermont, USA BCT-1020
Protocol: To test if the surface bound thrombin on the AuNP is reactive towards antithrombin, chromogenic substrate hydrolysis assay like the one mentioned above was performed in the presence of antithrombin and heparin. In a 96-well microplate, 80 μL of PBS buffer was mixed with 5 μL of either AuNP or water. Following this, 5 μL of AT (100 μM) and 5 μL of heparin (3.6 mM) was added and the mixtures were incubated at 25° C. for 20 minutes. Controls were kept with and without AT and heparin, respectively. After incubation, 5 μL of 5 mM Spectrozyme TH was added and the rate of substrate hydrolysis was monitored by observing the absorbance at 405 nm. The velocity of the substrate hydrolysis as obtained by the slope was compared to that of the controls in order to assess the reactivity of the thrombin towards AT (FIG. 6). An approximate 70% reactivity towards AT in the presence of heparin is observed for the AuNP-TH sample.

[6] = biological target: T4, Au-TH-HirP nanoprobe (NSET pair) (Bos taurus, UniProt P00735); experiment: Probing antithrombin levels in buffer with Au-TH-HirP nanoprobe (NSET pair); assay type: binding, bovine; conditions: for increase in fluorescence at 525 nm: 1 hr incubation
T4 construct: An aliquot of bovine α-thrombin (200 μg) from a stock solution; purchased Haematologic Technologies, Vermont, USA BCT-1020
Protocol: Au-TH-NP (6 nM, 50 μL) and HirP (50 μL, 30 nM) were mixed with 20 mM Tris-HCl buffer, pH 7.4, containing 100 mM NaCl, 2.5 mM CaCl2 and 0.1% PEG8000 and used as the standard nano-metal surface energy transfer (NSET) pair. Antithrombin (AT) was serially diluted starting from 100 μM to 1 pM by adding 20 mM Tris-HCl buffer, pH 7.4. Serially diluted AT solutions were then incubated with standard NSET pair in a 96-well plate for 0-1 h at RT with gentle rocking. A solution of 100 μL of Au-TH-HirP nanoprobe (NSET pair) mixed with 50 μL of buffer was used a control (F0). After 1 h of incubation, the 96-well plate was read at 525 nm (λex=488 nm) (F). A plot of F/F0 as Y-axis against AT concentration as X-axis is shown as FIG. 5. […] The fluorescence increases were smaller at 15, 30 and 45 min timepoints (FIG. 5).

Au-TH nanoprobe = biological target: T5, Au-TH nanoprobe (Bos taurus, UniProt P00735); experiment: Quenching of [5F]-hirudin (54-65) SO3- fluorescence by Au-TH nanoprobe; assay type: binding, bovine; conditions: 30 nM HirP, 0.5 h at RT, 525 nm (λex=488 nm)
T5 construct: An aliquot of bovine α-thrombin (200 μg) from a stock solution; purchased Haematologic Technologies, Vermont, USA BCT-1020

[7] = in vivo; cited from earlier work

Compound: unfractionated heparin [UFH]
patients forming antibodies to PF-4 heparin (PF-4 heparin complex): 30-40%

Compound: Au-TH nanoparticles: gold nanoparticles covalently linked to bovine alpha-thrombin
stability, change in absorbance spectra ([1]; RT, in dark, six hours): essentially no change | stability, degradation on storage ([1]; −80° C., 1 month): did not exhibit any degradation | VMAX and KM / catalytic efficiency compared with free thrombin ([2]; listed as Au-TH NP): identical to that of free thrombin | VMAX and KM / catalytic efficiency compared with free thrombin ([2]; listed as AuNP-TH): remain almost the same as that of free thrombin

Compound: heparin
incidence of acquired AT deficiency (AT levels): ≤ 25%

Compound: CCCCCCOC(=O)NC(=N)c1ccc(NCc2nc3cc(C(=O)N(CCC(=O)OCC)c4ccccn4)ccc3n2C)cc1 [Dabigatran etexilate]
liver function tests ([3]; doses as high as 300 mg twice a day for 12 weeks): no abnormal liver function tests | patients who developed significant bleeding ([3]; trial with and without aspirin): approximately 11%

Compound: bovine serum albumin [BSA]
change in emission intensity [4]: significant decrease; also recorded: Corresponding increases were not observed

neutralization of surface bound thrombin by AT [5]: up to 60% | fluorescence increases at earlier timepoints ([6]; 15, 30 and 45 min timepoints versus 1 hr): smaller | increase in fluorescence at 525 nm ([6]; AT 1 μM): approximately 40% | increase in fluorescence at 525 nm ([6]; AT 10 μM): ~25 | increase in fluorescence at 525 nm ([6]; AT 100 μM): ~20% | increase in fluorescence ([6]; AT concentrations less than 1 μM): Noticeable increases
Compound: antithrombin [AT]

Compound: [5F]-hirudin (54-65) SO3^− [HirP]
quenching of fluorescence from HirP (Au-TH nanoprobe): approximately 86%

Compound: bivalirudin
half-life [7]: 25 min
